Assay [1] addresses T1, soybean lipoxygenase (Glycine max, UniProt P08170).
T1 sequence (P08170 1-839): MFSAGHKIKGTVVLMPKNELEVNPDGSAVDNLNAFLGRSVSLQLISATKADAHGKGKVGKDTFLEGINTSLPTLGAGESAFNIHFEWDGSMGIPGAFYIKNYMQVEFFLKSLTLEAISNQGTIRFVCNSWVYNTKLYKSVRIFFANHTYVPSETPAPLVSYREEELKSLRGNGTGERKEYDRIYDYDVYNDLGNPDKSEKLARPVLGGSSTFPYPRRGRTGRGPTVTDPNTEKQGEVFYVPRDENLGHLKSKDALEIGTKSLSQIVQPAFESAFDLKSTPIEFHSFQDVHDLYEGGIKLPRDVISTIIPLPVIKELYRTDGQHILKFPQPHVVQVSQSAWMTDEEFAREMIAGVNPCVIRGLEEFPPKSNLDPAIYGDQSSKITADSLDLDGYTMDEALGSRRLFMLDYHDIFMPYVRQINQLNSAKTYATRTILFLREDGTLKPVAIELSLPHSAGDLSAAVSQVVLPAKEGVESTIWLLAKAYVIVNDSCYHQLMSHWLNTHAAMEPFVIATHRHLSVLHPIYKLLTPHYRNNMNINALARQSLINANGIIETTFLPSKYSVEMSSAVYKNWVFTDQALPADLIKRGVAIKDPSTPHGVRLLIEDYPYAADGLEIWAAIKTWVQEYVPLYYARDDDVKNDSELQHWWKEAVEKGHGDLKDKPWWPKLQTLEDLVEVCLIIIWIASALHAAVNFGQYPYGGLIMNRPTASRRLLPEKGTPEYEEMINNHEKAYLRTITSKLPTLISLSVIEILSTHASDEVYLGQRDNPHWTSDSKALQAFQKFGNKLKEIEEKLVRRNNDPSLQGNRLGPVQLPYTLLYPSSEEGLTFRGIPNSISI
Briefly: Lipoxygenase Screen: inhibition of soybean lipoxygenase activity. It counts as biochemical. Conditions: 25° C., pH 9.0, 1000 I.U. soybean lipoxygenase, 0.017 mM arachidonic acid, 5 min preincubation; range in parentheses not explained; Example 9 as N-methylglucamine salt. How it is done: Inhibition of lipoxygenase activity was measured at 25° C. in a buffered incubation system (0.2M sodium borate, pH 9.0) comprising 1000 I.U. soybean lipoxygenase, 0.017 mM arachidonic acid, and compound (0-0.050 mM, dissolved in absolute ethanol:0.9% w/v saline, 30:70 v/v) in a total volume of 2.5 ml. Enzyme and compound were preincubated together at 25° C. for 5 minutes prior to initiation of the lipoxygenase reaction by the addition of the arachidonic acid. Lipoxygenase activity was measured as the rate of the initial increase in absorbance at 235 nm due to the formation of peroxidised forms of arachidonic acid. Inhibitory activity was measured at at least three compound concentrations and the 50% inhibitory concentration determined from the plot of % inhibition versus compound concentration.

In assay [2] the target is T2, cyclo-oxygenase (Bos taurus, UniProt O62664).
T2 construct: lyophilised bovine seminal vesicle microsomes; from tissue; host or cells: bovine seminal vesicle microsomes
T2 sequence (O62664 25-600): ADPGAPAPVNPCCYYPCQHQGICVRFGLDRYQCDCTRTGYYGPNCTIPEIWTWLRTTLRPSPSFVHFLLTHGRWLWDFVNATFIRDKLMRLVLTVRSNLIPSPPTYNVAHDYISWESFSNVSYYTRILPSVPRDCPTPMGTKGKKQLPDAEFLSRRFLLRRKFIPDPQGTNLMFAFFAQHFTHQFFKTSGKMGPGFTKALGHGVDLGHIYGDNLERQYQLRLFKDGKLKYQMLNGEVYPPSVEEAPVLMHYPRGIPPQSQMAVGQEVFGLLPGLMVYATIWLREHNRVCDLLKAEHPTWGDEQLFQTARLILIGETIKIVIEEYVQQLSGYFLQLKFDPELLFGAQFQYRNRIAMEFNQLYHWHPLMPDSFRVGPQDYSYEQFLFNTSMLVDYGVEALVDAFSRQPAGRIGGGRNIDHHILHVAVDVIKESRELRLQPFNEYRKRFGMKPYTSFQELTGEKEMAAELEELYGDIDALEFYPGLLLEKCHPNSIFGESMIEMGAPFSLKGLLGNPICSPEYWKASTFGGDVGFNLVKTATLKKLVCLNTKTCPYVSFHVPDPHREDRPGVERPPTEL
Kind of assay: Cyclo-oxygenase Screen: inhibition of cyclo-oxygenase in bovine seminal vesicle microsomes. It counts as biochemical. Conditions: 50 μM compound, pH 8.0, 37° C., 5 min preincubation, 2 min reaction, 5-15 μM arachidonic acid, read-out: Cyclooxygenase Inhibition at 50 μM. As for the experimental part: (2) Cyclo-oxygenase Screen
The inhibition of cyclo-oxygenase was measured in a buffered incubation (0.2M Tris-HCI, pH 8.0 containing 1 mM ethylene diaminetetraacetic acid) comprising 0.96 mg lyophilised bovine seminal vesicle microsomes, 5-15 μM arachidonic acid containing 0.2 μCi [1--^14 C] arachidonic acid, 2 mM glutathione, […], 1 μM haemoglobin and compound (0-0.05 mM in 5 μl dimethylsulphoxide or absolute ethanol) in a total volume of 2.0 ml. Compounds were preincubated with the incubation constitutents for 5 min at 37° C. before the reaction was started by the addition of the arachidonic acid. The reaction was continued at 37° C. for 2 min, then stopped by placing the incubations on ice and the addition of 1.2 ml 0.2M citric acid. Unmetabolised substrate and prostaglandin products were extracted in ethyl acetate (2×4 ml), the combined extracts washed with 0.8 ml water, and separated by thin-layer chromatography (Kieselgel GF254 plates in ethyl acetate:acetone:glacial acetate acid, 90:10:1, v/v). Recovery was 65-80%. The regions on the thin-layer chromatography plate that chromatographed with authentic arachidonic acid or prostaglandins E2 and F2 α (Rf 's 0.70. 0.28 and 0.16 respectively) were scraped and the radioactivity in each determined by liquid scintillation counting with a correction for quenching being made by the external standard-channels ratio method. Inhibition of cyclo-oxygenase activity was calculated from the decrease in prostaglandin formation. Each compound concentration was tested in triplicate and the 50% inhibitory concentration, if determined, was calculated by linear regression from the inhibitory data at, at least three different compound concentrations.

This note sets out measurements from patent US4713486A, “Novel compounds” (Beecham Group p.l.c., priority 1982, dated 1987).

On to `CCCCCCCCCCCC#Cc1ccc(/C=C/C(=O)O)cc1` [Example 9, 4-(1-Tridecynyl)cinnamic acid], for which the IC50 (commonly the point on the concentration scale where inhibition reaches its midpoint) in assay [1] came out at 272 µM. Consider `CCCCCCCCCCCC#Cc1cccc(/C=C/C(=O)O)c1` [Example 13], for which the inhibition (usually the percentage by which the read-out fell short of the control) at 50 µM in assay [2] was 79.8%. `CCCCCCCCC/C=C\c1ccc(OCCCC(=O)O)cc1` [Example 92]: the IC50 in assay [1] was 42.8 µM. Take `CCCCCCCCC/C=C\c1ccc(/C=C/C(=O)O)cc1` [Example 27]: the IC50 in assay [1] is 46.6 µM. Besides, the inhibition at 50 µM in assay [2] amounted to 70.5%. For `CCCCCCCCCCC/C=C/c1ccccc1OCCCCC(=O)O` [Example 87], the inhibition at 50 µM in assay [2] is 67%. Regarding `CCCCCCCCCCCC#Cc1ccccc1/C=C/C(=O)O` [Example 12], the IC50 in assay [1] stood at 85.7 µM. For the same compound, the inhibition at 50 µM in assay [2] is 86.5%. As for `CCCCCCCCCCC/C=C\c1ccccc1OCCCC(=O)O` [Example 62, (Z) 4-[2-(1-tridecenyl)phenoxy]-butanoic acid], in assay [1], the IC50 was 4.2 µM. The inhibition at 50 µM in assay [2] is 67%. As for `CCCCCCCCCCC/C=C\c1cccc(/C=C/C(=O)O)c1` [Example 31], the inhibition at 50 µM in assay [2] stood at 91%. For `CCCCCCCCCCC/C=C\c1ccc(/C=C/C(=O)OC)cc1` [Example 15, Methyl 4-[(Z)-1-tridecenyl]cinnamate], the IC50 in assay [1] came out at 230 µM. `CCCCCCCCCCC/C=C\c1ccc(OCC(=O)O)cc1` [Example 89]: the IC50 in assay [1] turned out to be 124 µM. Besides, the inhibition at 50 µM in assay [2] was 51%.

Regarding `CCCCCCCCCCCC#Cc1ccccc1CCC(=O)O` [Example 42, 3[2-(1-Tridecynyl)phenyl]propanoic acid], the IC50 in assay [1] was 20 µM. Also, the inhibition at 50 µM in assay [2] worked out at 80%. In the case of `CCCCCCCCCCCC#Cc1ccc(/C=C/C(=O)OC)cc1` [Example 4, Methyl 4-(1-tridecynyl)cinnamate], in assay [1], the concentration for half-maximal inhibition (IC50) is 142 µM.

`CCCCCCCCC/C=C/c1ccc(/C=C/C(=O)O)cc1` [Example 26]: in assay [1], the IC50 is 52.3 µM. Further, in assay [2], the inhibition at 50 µM stood at 52%. The corresponding values for `CCCCCCCCCCC/C=C\c1ccc(/C=C/C(=O)O)cc1` [Example 25] are 35.9 µM and 25.6%. As for `CCCCCCCCCCC/C=C/c1ccccc1OCCCC(=O)O` [Example 85], the inhibition at 50 µM in assay [2] is 64%. On the same count and under the same terms, for `CCCCCCCCCCC/C=C/c1ccc(CCC(=O)O)cc1` [Example 41, 3-{4-[(E)-1-Tridecenyl]phenyl}propanoic acid] the value was 40%; for `CCCCCCCCCCC/C=C\c1ccccc1OCC(=O)O` [Example 60, (Z) 2-[2-(1-tridecenyl)-phenoxy]ethanoic acid], 92.4%.

On to `CCCCCCCCCC/C=C\c1ccc(OCCC(=O)O)cc1` [Example 90], for which the IC50 in assay [1] turned out to be 75.3 µM. As for `CCCCCCCCCCC/C=C/c1ccc(/C=C/C(=O)O)cc1` [Example 24, 4-[(E)-1-Tridecenyl]cinnamic acid], the IC50 in assay [1] came out at 30 µM. Also, the inhibition at 50 µM in assay [2] is 52%.

`CCCCCCCCCCC/C=C\c1ccccc1OCCC(=O)O` [Example 61, (Z) 3-[2-(1-tridecenyl)phenoxy]-propanoic acid]: the inhibition at 50 µM in assay [2] is 78.9%. In the case of `CCCCCCCCCCC/C=C\c1ccccc1OCCCC(=O)OCC` [Example 55, (Z) Ethyl 4-[2-(1-tridecenyl)phenoxy)-butanoate], in assay [1], the half-maximal inhibitory concentration (IC50) is 55.4 µM. In the case of `CCCCCCCCCCCCC/C=C\c1ccc(/C=C/C(=O)O)cc1` [Example 29], the inhibition at 50 µM in assay [2] stood at 66.5%. Same read-out and setting: next, `CCCCCCCC/C=C\c1ccccc1OCCCC(=O)O` [Example 82]: 72%.

With `CCCCCCCCCCC/C=C\c1ccccc1/C=C/C(=O)O` [Example 30], the half-maximal inhibitory concentration (IC50) in assay [1] is 23.2 µM. Also, the inhibition at 50 µM in assay [2] is 26%. For `CCCCCCCCCCC/C=C\c1ccc(CCC(=O)O)cc1` [Example 40, 3-{4-[(Z)-1-Tridecenyl]phenyl}propanoic acid], in assay [2], the inhibition at 50 µM amounted to 67%.

For `CCCCCCCCCCC/C=C\c1ccccc1CCC(=O)O` [Example 43, 3-{2-[(Z)-1-Tridecenyl]phenyl}propanoic acid], the IC50 in assay [1] is 18.4 µM. In assay [2], the inhibition at 50 µM was found to be 62.7%.
